This is an account of results in patent US7601737B2, “Isotopically substituted proton pump inhibitors” (priority 2005, dated 2009).

What is called hepatocyte CLint is a measure of how fast metabolising enzymes remove a compound, apart from limits set by blood flow. Low readings indicate slow turnover, high ones rapid turnover.

Series [1] can be described thus: Metabolisation in liver microsomes (rat). The series is classed as in vitro ADME. Conditions: for Percent of compound metabolized: 10 μM, 90 minutes incubation; for Ratio of percent metabolized, Example/Pantoprazole: 90 minutes. Here is the method:
(§1) Pantoprazole or examples 1 or 2 (10 μM each) were incubated with liver microsomes (source: all from GenTest except Mini Pig from TEBU),incubation in 1 mg/ml protein, 100 mM Tris-HCl, pH 7.4, 1 mM NADPH2). Reaction was terminated after 90 minutes by liquid nitrogen, the parent compound was detected by HPLC (10 mM KH2PO4, pH 7.4, acetonitril gradient 20-44%).
(Microsomes from liver hold many membrane-bound enzymes, among them those of drug oxidation.)

Series [2] in a line: Metabolisation in liver microsomes (mini pig). Conditions: for Percent of compound metabolized: 10 μM, 90 minutes incubation; for Ratio of percent metabolized, Example/Pantoprazole: 90 minutes. It counts as in vitro ADME. Here is the method:
as §1

The nature of series [3]: Metabolisation in liver microsomes (mouse). The following applies: for Percent of compound metabolized: 10 μM, 90 minutes incubation; for Ratio of percent metabolized, Example/Pantoprazole: 90 minutes. It counts as in vitro ADME. Here is the method:
as §1

A short description of series [4]: Metabolisation in liver microsomes (human). The following applies: for Percent of compound metabolized: 10 μM, 90 minutes incubation; for Ratio of percent metabolized, Example/Pantoprazole: 90 minutes. The series is classed as in vitro ADME. The procedure:
as §1

For series [5], the system named is human cryopreserved hepatocytes. The following applies: human, 60 min.
Description: Following the evaluation of the metabolic clearance of the compounds according to the invention via P450 enzymes, the formation kinetics of the main metabolite identified in humans, i.e. M2 (5-(difluoromethoxy)-2-[[(3-methoxy-4-sulfate-2-pyridyl)-methyl]sulfinyl]-1H-benzimidazole) was determined. Because the generation of M2 involves the oxidation of the 4-methoxy-pyridyl group by CYP2C19 and subsequent conjugation with 3′-phosphoadenosine-5′-phosphosulfate (PAPS) by an unidentified sulphotransferase, human cryopreserved hepatocytes were used since both phase I and phase II enzymes are functional in this in vitro system.
M2 formation rate under these conditions was linear up to 60 min. The M2 formation rate was determined at nine different compound concentrations (0, 0.5, 1.0, 2.5, 5.0, 10.0, 25.0, 50.0 and 100 μMol/L) incubated in duplicate for 60 min at 37° C. M2 was quantified using LC-MS/MS. M2 isolated from human urine was used as an external standard. The concentration to reach the half-maximal formation rate (KM-value) and the maximal formation rate (Vmax) were obtained by non-linear regression analysis using the Michaelis-Menten equation. The intrinsic clearance (Clint) was obtained dividing Vmax over KM.
For a further series, the target named is CYP3A4 (Homo sapiens, UniProt P08684). The series can be described thus: Metabolic clearance in recombinant human cytochrome P450 CYP3A4. Conditions: recombinant P450 1 nmol/mL, disappearance of parent compound; lower limit of assay resolution 17.6 μl/min/nmol P450.
A short description of series [6]: Metabolisation in liver microsomes (monkey). It counts as in vitro ADME. Conditions: for Percent of compound metabolized: 10 μM, 90 minutes incubation; for Ratio of percent metabolized, Example/Pantoprazole: 90 minutes. The procedure:
as §1

A further series deals with T1, CYP2C19 (Homo sapiens, UniProt P33261).
T1 construct: purchased Cypex, Dundee, UK
As to the kind of experiment: Metabolic clearance in recombinant human cytochrome P450 CYP2C19. It counts as in vitro ADME. Conditions: recombinant P450 0.5 nmol/mL, disappearance of parent compound; lower limit of assay resolution 17.6 μl/min/nmol P450. Here is the method:
Incubations were carried out in triplicate.

Series [7] in a line: Metabolisation in liver microsomes (dog). The following applies: for Percent of compound metabolized: 10 μM, 90 minutes incubation; for Ratio of percent metabolized, Example/Pantoprazole: 90 minutes. The series is classed as in vitro ADME. The procedure:
as §1

Series [8] in a line: Metabolisation in liver microsomes (guinea pig). It counts as in vitro ADME. The following applies: Guinee pig liver microsomes; for Percent of compound metabolized: 10 μM, 90 minutes incubation; for Ratio of percent metabolized, Example/Pantoprazole: 90 minutes. The procedure:
as §1

For series [9], the system named is human cryopreserved hepatocytes. As to the kind of experiment: in vitro. Conditions: for % Σ Clint rac. Omeprazole: human, hepatocytes. From the text: (§2) 5-hydroxy-omeprazole was quantified using LC-MS/MS.
Another series can be described thus: in vitro. Conditions: human, hepatocytes.
Excerpt: as §2

Sequence of CYP3A4 (P08684 whole entry): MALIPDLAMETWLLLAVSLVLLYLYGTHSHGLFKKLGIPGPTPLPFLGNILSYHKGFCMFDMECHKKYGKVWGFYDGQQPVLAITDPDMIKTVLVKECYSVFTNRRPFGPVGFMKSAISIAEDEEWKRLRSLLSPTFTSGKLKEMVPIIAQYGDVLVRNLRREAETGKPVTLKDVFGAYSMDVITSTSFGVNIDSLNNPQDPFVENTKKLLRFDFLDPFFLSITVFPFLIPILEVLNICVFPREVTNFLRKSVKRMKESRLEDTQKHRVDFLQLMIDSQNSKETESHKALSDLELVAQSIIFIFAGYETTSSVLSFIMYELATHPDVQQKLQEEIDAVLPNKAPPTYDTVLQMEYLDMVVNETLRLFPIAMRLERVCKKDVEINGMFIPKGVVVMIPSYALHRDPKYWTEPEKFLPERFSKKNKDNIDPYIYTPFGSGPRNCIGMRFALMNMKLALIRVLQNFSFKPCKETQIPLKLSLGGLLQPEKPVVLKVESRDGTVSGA
T1 sequence (P33261 whole entry): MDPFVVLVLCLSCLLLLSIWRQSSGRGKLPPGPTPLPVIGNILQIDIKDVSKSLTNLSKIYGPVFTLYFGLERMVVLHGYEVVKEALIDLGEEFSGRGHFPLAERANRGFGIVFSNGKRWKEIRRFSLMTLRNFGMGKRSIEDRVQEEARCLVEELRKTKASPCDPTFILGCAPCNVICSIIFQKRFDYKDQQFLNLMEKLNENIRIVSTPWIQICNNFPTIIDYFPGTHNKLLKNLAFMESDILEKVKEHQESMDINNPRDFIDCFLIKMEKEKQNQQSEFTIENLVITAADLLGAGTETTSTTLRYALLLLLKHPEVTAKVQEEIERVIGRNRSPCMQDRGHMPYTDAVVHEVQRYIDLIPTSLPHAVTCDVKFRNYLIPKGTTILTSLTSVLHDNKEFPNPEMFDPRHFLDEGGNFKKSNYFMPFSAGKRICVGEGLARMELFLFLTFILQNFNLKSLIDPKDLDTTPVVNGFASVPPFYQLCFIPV
Description for CYP3A4: In order to evaluate the properties of the compounds according to the invention the compounds' intrinsic clearances in recombinant human cytochrome P450 (CYP) isoenzymes CYP1A2, CYP2C8, CYP2C19, CYP2D6, CYP3A4, and CYP3A5 were determined.
Incubations were carried out in triplicate. […] The intrinsic clearance was determined based on the rate of disappearance of parent compound. Pantoprazole, omeprazole and the deuterated analogues were determined by HPLC-UV. The lower limit of assay resolution based on experimental variability was 17.6 μl/min/nmol P450.

In the case of `COc1ccnc(C[S+]([O-])c2nc3ccc(OC(F)F)cc3[nH]2)c1OC` (stereo not drawn) [H-Pantoprazole, 5-difluoromethoxy-2-[(3,4-dimethoxy-2-pyridinyl)methylsulphinyl]-1H-benzimidazole, reference compound], the “Percent of compound metabolized” value in [1] is listed as 61%; in [2], 26%; in series [3], 62%; in series [4], 28%; in [6], 73%; in series [7] it was 20%. Moreover, the “Percent of compound metabolized” value in [8] is listed as 78%. Further, the “Substrate concentrations at which formation of M2 appeared to be inhibited” value in series [5] is listed as “above 100 μM”. For the same compound, the “Contribution of CYP3A4 to the oxidative metabolism” value at CYP3A4 is recorded as “contribute to the oxidative metabolism”. Besides, at CYP2C19, the “Contribution of CYP2C19 to the oxidative metabolism” value is given as “contribute to the oxidative metabolism”.
Consider `[2H]C([2H])([2H])Oc1ccnc(C[S+]([O-])c2nc3cc(OC(F)F)ccc3[nH]2)c1OC` (racemic) [Example 1, (R/S)-5-Difluoromethoxy-2-[(3-methoxy-4-trideuteriomethoxy-2-pyridinyl)methylsulfinyl]-1H-benzimidazole], for which the “Percent of compound metabolized” value in [1] is 35%; in series [2], 19%; in series [3] it was 36%; in [4], 14%; in [6], 47%; in [7], 12%. The “Percent of compound metabolized” value in [8] came to 59%. For the same compound, the “Ratio of percent metabolized, Example/Pantoprazole” value in series [1] stood at 0.57; in series [2] it was 0.73; in [3] it was 0.58; in series [4] it was 0.50; in [6], 0.64; in series [7] it was 0.60. In addition, the “Ratio of percent metabolized, Example/Pantoprazole” value in series [8] is listed as 0.75.
Consider `COc1ccc2[nH]c([S+]([O-])Cc3ncc(C)c(OC)c3C)nc2c1` (racemic) [rac. Omeprazole, 5-methoxy-2-[(4-methoxy-3,5-dimethyl-2-pyridinyl)methylsulphinyl]-1H-benzimidazole, reference compound], for which, on CYP3A4, the “Contribution of CYP3A4 to the oxidative metabolism” value is given as “contribute to the oxidative metabolism”. Also, in [9], the “% Σ Clint rac. Omeprazole” value was 100%. The compound also registered a hepatocyte CLint in the series “in vitro” of 2 µL/min/1e6 cells. In addition, the “Contribution of CYP2C19 to the oxidative metabolism” value on CYP2C19 is “contribute to the oxidative metabolism”.
For `[2H]C([2H])([2H])Oc1ccnc(C[S@+]([O-])c2nc3cc(OC(F)F)ccc3[nH]2)c1OC` [Example 2, (S)(−)-5-Difluoromethoxy-2-[(3-methoxy-4-trideuteriomethoxy-2-pyridinyl)methylsulfinyl]-1H-benzimidazole], the “Percent of compound metabolized” value in [1] was found to be 17%; in [2], 19%; in series [3], 17%; in series [4] it was 15%; in [6], 35%; in series [7] it was 10%. Moreover, in [8], the “Percent of compound metabolized” value came out at 54%. Also, the “Ratio of percent metabolized, Example/Pantoprazole” value in series [1] is 0.28; in series [2], 0.73; in series [3], 0.27; in [4], 0.54; in [6], 0.48; in [7] it was 0.50. Moreover, the “Ratio of percent metabolized, Example/Pantoprazole” value in series [8] is given as 0.69.
With `[2H]C([2H])([2H])Oc1ccc2[nH]c([S@@+]([O-])Cc3ncc(C)c(OC([2H])([2H])[2H])c3C)nc2c1.[Na]` [Example 49, (S)-5-Trideuteriomethoxy-2-[(3,5-dimethyl-4-trideuteriomethoxy-2-pyridinyl)methylsulfinyl]-1H-benzimidazole sodium salt], in series [9], the “Change of intrinsic clearance (Clint) of 5-hydroxy-omeprazole” value is given as “did not alter the intrinsic clearance” and the “% Σ Clint rac. Omeprazole” value is reported as 40%. In the series “in vitro”, this compound returned a hepatocyte CLint of 0.8 µL/min/1e6 cells.
